Laboratory results taken from patent publication US10377773B2, “Isothiazolopyrimidinones, pyrazolopyrimidinones, and pyrrolopyrimidinones as ubiquitin-specific protease 7 inhibitors” (FORMA Therapeutics, Inc., priority 2015, dated 2019).

Target: T1, USP7 (Homo sapiens, UniProt Q93009)
T1 construct: USP7, construct USP7 (208-1102) 6*His, Viva Biotech; initiator Met (N); TEV site (C); 6*His (C); purchased Viva Biotech
Experiment: USP7 Assay A and B (Ubiquitin-Rhodamine 110 assay)
Assay type: biochemical
Conditions: Ub-Rh110 substrate 25 nM, read-out: USP7_IC50
Procedure: Each assay was performed in a final volume of 15 μL in assay buffer containing 20 mM Tris-HCl (pH 8.0, (1M Tris-HCl, pH 8.0 solution; Corning 46-031-CM)), 1 mM GSH (L-Glutathione reduced; Sigma #G4251), 0.03% BGG (0.22 μM filtered, Sigma, #G7516-25G), and 0.01% Triton X-100 (Sigma, #T9284-10L). Nanoliter quantities of either an 8-point or 10-point, 3-fold serial dilution in DMSO was pre-dispensed into assay plates (Perkin Elmer, ProxiPlate-384 F Plus, #6008269) for a final test concentration range of either 25 μM to 11 nM or 25 μM to 1.3 nM, respectively. The final concentration of the enzyme (USP7, construct USP7 (208-1102) 6*His, Viva Biotech) in the assay was 62.5 pM. Final substrate (Ub-Rh110; Ubiquitin-Rhodamine 110, R&D Systems #U-555) concentration was 25 nM with [Ub-Rh110]<<Km. 5 μL of 2× enzyme was added to the assay plates (pre-stamped with compound) and preincubated with USP7 for 30 min. 5 μL of 2×Ub-Rh110 was then added to assay plates. Plates were incubated stacked for 20 min at room temperature before 5 μL of stop solution (final concentration of 10 mM citric acid in assay buffer (Sigma, #251275-500G)). Fluorescence was read on the Envision (Excitation at 485 nm and Emission at 535 nm; Perkin Elmer) or on the PheraSTAR (Excitation at 485 nm and Emission at 535 nm; BMG Labtech).
Each assay was performed in a final volume of 20 μL in assay buffer containing 20 mM Tris-HCl (pH 8.0, (1M Tris-HCl, pH 8.0 solution; Corning 46-031-CM)), 2 mM CaCl2 (1M calcium chloride solution; Sigma #21114), 1 mM GSH (L-Glutathione reduced; Sigma #G4251), 0.01% Prionex (0.22 μM filtered, Sigma #G-0411), and 0.01% Triton X-100. Stock compound solutions were stored at −20° C. as 10 mM in DMSO. Up to 1 month prior to the assay, 2 mM test compounds were pre-dispensed into assay plates (Black, low volume; Corning #3820) and frozen at −20° C. Prestamped assay plates were allowed to warm to room temperature on the day of the assay. For the screen, 100 nL of 2 mM was pre-dispensed for a final screening concentration of 10 μM (DMSO(fc)=0.5%). For follow-up studies, 250 nL of an 8-point, 3-fold serial dilution in DMSO was pre-dispensed into assay plates for a final test concentration of 25 μM-11 nM (1.25c % DMSO final concentration). Unless otherwise indicated, all follow-up assays were run on triplecate plates. Enzyme (USP7, construct Met (208-1102)-TEV-6*His; Viva Q93009-1) concentration and incubation times were optimized for the maximal signal-to-background while maintaining initial velocity conditions at a fixed substrate concentration. The final concentration of the enzyme in the assay was either 75 pM or 250 pM. Final substrate (Ub-Rh110; Ubiquitin-Rhodamine 110, R&D Systems (biotechne)#U-555) concentration was 25 nM with [Ub-Rh110]<<Km. Compounds were either not preincubated or preincubated with USP7 between 30 to 120 min prior to the addition of 10 μL of 2×Ub-Rh110 to compound plates. Plates were incubated stacked for either 23 or 45 min at room temperature before fluorescence was read on the Envision (Excitation at 485 nm and Emission at 535 nm; Perkin Elmer) or on the PheraSTAR (Excitation at 485 nm and Emission at 535 nm; BMG Labtech).
Data from USP7 Assays A and B were reported as percent inhibition (inh) compared with control wells based on the following equation: % inh=1−((FLU−AveLow)/(AveHigh−AveLow)) where FLU=measured Fluorescence, AveLow=average Fluorescence of no enzyme control (n=16), and AveHigh=average Fluorescence of DMSO control (n=16). IC50 values were determined by curve fitting of the standard 4 parameter logistic fitting algorithm included in the Activity Base software package: IDBS XE Designer Model205. Data was fitted using the Levenburg Marquardt algorithm.

T1 sequence (Q93009 208-1102): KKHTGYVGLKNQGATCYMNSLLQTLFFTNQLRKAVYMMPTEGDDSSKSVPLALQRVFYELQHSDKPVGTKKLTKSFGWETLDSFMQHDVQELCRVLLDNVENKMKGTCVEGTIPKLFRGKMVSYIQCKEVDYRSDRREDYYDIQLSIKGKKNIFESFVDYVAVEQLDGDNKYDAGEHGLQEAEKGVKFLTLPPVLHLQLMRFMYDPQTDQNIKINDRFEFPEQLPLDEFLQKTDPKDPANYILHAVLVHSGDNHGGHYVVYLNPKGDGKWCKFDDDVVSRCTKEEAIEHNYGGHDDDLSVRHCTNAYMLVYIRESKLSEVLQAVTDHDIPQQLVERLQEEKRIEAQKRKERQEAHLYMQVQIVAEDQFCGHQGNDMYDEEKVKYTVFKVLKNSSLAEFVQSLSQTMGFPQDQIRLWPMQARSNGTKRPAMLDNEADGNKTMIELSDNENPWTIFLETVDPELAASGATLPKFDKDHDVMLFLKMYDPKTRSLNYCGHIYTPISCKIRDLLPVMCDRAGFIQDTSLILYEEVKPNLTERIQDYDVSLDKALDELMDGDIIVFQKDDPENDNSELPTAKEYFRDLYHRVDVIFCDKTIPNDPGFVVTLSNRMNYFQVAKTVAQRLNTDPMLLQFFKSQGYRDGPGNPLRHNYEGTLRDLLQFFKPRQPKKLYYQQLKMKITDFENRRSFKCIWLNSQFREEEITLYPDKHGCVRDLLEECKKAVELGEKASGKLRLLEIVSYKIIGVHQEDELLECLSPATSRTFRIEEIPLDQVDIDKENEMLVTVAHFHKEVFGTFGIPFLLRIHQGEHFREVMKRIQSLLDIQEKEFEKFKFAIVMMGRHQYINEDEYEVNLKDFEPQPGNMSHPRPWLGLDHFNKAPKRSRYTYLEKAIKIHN

First: COc1ccc(C(=O)N2CCC(O)(Cn3cnc4c(-c5ccc(OC)cc5)n[nH]c4c3=O)CC2)cc1 [Compound I-21, 6-{[4-hydroxy-1-(4-methoxybenzoyl)piperidin-4-yl]methyl}-3-(4-methoxyphenyl)-1H,6H,7H-pyrazolo[4,3-d]pyrimidin-7-one]
Second: COc1ccc(-c2n[nH]c3c(=O)n(CC4(O)CCN(C(=O)c5ccc(F)cc5)CC4)cnc23)cc1 [Compound I-6, 6-{[1-(4-fluorobenzoyl)-4-hydroxypiperidin-4-yl]methyl}-3-(4-methoxyphenyl)-1H, 6H,7H-pyrazolo[4,3-d]pyrimidin-7-one]
The IC50 of the first is higher: 500 to 1000 nM for the first, under 500 nM for the second.

First: O=C(C[C@H](c1ccccc1)C(F)F)N1CCC(O)(Cn2cnc3c(-c4ccccc4)nsc3c2=O)CC1 [Compound I-18, 6-({1-[(3R)-4,4-difluoro-3-phenylbutanoyl]-4-hydroxypiperidin-4-yl}methyl)-3-phenyl-6H,7H-[1,2]thiazolo[4,5-d]pyrimidin-7-one]
Second: O=C(C[C@@H](c1ccccc1)C(F)F)N1CCC(O)(Cn2cnc3c(-c4ccccc4)nsc3c2=O)CC1 [Compound I-19, 6-({1-[(3 S)-4,4-difluoro-3-phenylbutanoyl]-4-hydroxypiperidin-4-yl}methyl)-3-phenyl-6H, 7H-[1,2]thiazolo[4,5-d]pyrimidin-7-one]
The IC50 of the first is higher: over 10000 nM for the first, 500 to 1000 nM for the second. The second is the more potent here.

First: COc1ccc(-c2nsc3c(=O)n(CC4(O)CCN(C(=O)c5ccc(F)cc5)CC4)cnc23)cc1 [Compound I-2, 6-{[1-(4-fluorobenzoyl)-4-hydroxypiperidin-4-yl]methyl}-3-(4-methoxyphenyl)-6H,7H-[1,2]thiazolo[4,5-d]pyrimidin-7-one]
Second: O=C(c1ccc(F)cc1)N1CCC(O)(Cn2cnc3c(-c4ccc(F)cc4)n[nH]c3c2=O)CC1 [Compound I-5, 6-{[1-(4-fluorobenzoyl)-4-hydroxypiperidin-4-yl]methyl}-3-(4-fluorophenyl)-1H,6H,7H-pyrazolo[4,3-d]pyrimidin-7-one]
The IC50 of the first is higher: 1000 to 10000 nM for the first, 500 to 1000 nM for the second. The second is the more potent here.

`CC(CC(=O)N1CCC(O)(Cn2cnc3c(-c4ccccc4)nsc3c2=O)CC1)n1cccn1` (stereo not drawn) [Compound I-14, 6-({4-hydroxy-1-[3-(1H-pyrazol-1-yl)butanoyl]piperidin-4-yl}methyl)-3-phenyl-6H,7H-[1,2]thiazolo[4,5-d]pyrimidin-7-one] and `COc1ccc(C(=O)N2CCC(O)(Cn3cnc4c(-c5ccccc5)n[nH]c4c3=O)CC2)cc1` [Compound I-7, 6-{[4-hydroxy-1-(4-methoxybenzoyl)piperidin-4-yl]methyl}-3-phenyl-1H,6H,7H-pyrazolo[4,3-d]pyrimidin-7-one] fall in the same range of IC50: 1000 to 10000 nM for the first, 1000 to 10000 nM for the second.

For `CN(C)C(=O)N1CCC(O)(Cn2cnc3c(-c4ccc(NCCN5CCCCC5)cc4)nsc3c2=O)CC1` [Compound I-26, 4-hydroxy-N,N-dimethyl-4-{[7-oxo-3-(4-{[2-(piperidin-1-yl)ethyl]amino}phenyl)-6H,7H-[1,2]thiazolo[4,5-d]pyrimidin-6-yl]methyl}piperidine-1-carboxamide], the IC50 was 1000 to 10000 nM.
